Counter-ions that a name gives are not always drawn. *1 amine or outer side, *2 acyl side, *3 side chain or, on linkers, in order; H or OH if unused. Where a SMILES comes first, the peptide text is derived from it. Bridges are numbered along the chain shown (N, C = ends). Roman numbers before positions name the chains, in order. [ ]: non-standard residue; d: D form. Actinocin(9to1) = Cc1c2oc3c(C)ccc(C(=O)[*:1])c3nc-2c(C(=O)[*:2])c(N)c1=O; NMeV = CN[C@H](C(=O)O)C(C)C; Sar = CNCC(=O)O
Assays:
[1] = oral administration, multiple myeloma; cited from earlier work
[2] = cited from earlier work; for elimination half-life: intravenous
[3] = previously untreated chronic myelogenous leukemia; cited from earlier work
[4] = system: HT-29 colon adenocarcinoma cells; experiment: Anchorage-independent growth, soft agar colony formation; type: cell-based, human
Experimental: Soft agar colony formation is used to determine anchorage independent growth, an in vitro parameter which correlates well with tumorigenicity of HT 29 cells. (AFB-13 cells are unable to form soft agar colonies, a characteristic of normal cells). These assays are performed in 6 well ([…]) multiwell tissue culture dishes. The wells are underlayed with 1% low melting agarose in complete growth media, and refrigerated for 15 min. 1×10^3 HT 29 cells are then added to the wells in complete media in 0.5% low melting agarose. […] After a 24 h incubation period, 0.5 mL of media containing compound to be tested (or media alone as a control) is added to the dish. During the assay, media with or without the test compound is replenished every 3 days. Colonies estimated to contain >100 cells are counted after 14 days. For compounds that induce growth inhibition, the assay is continued to 28 days to assure that differences in colony forming ability were not due to altered growth rate of cells. For initial screening, assays are performed in duplicate for each compound to be tested, due to the large amount of inhibitor required for the length of the study.

Lck (p56^lck) = molecular target: T1, Lck (p56^lck) (Mus musculus, UniProt P06240); experiment: Lck tyrosine kinase activity, poly E4Y and 32P-ATP; type: biochemical
T1 construct: glutathione-S-transferase (GST) (N); made in house; host or cells: E. coli
Source text: (§1) The genes encoding Csk, Lck, Abl, and the FGF receptor have all been cloned. The genes encoding Csk, Abl, and the FGF receptor were cloned from humans, and the genes encoding Lck were cloned from a mouse. Recombinant Csk, Lck, Abl, and the FGFr were expressed as glutathione-S-transferase fusion proteins using the pGEX expression vector and E. coli, and purified as described (Sun et al., 1995).
(§2) Recombinant Src was expressed using the baculovirus-insect cell system and purified as published (Budde et al, 1993). Recombinant Csk, Lck, Abl, and the FGFr were expressed as glutathione-S-transferase fusion proteins using the pGEX expression vector and E. coli, and purified as described (Sun and Budde, 1995).
(§3) The tyrosine kinase activity of Src, Lck (p56^lck), Csk (C-Src kinase), Abl (Bcr-Abl catalytic domain), and the FGFr (fibroblast growth factor receptor catalytic domain), was determined using poly E4 Y and ^32 P-ATP.

protein kinase A (PKA) = protein kinase A (PKA) (Homo sapiens, UniProt P17612); experiment: Enzyme panel: protein kinase A; type: biochemical
[5] = system: HT-29 colon adenocarcinoma cells; experiment: Growth of HT-29 cells, viable cell count; type: cell-based, human; conditions: viable cell count 5 days after plating
Experimental: (§4) For these assays 2×10^4 cells are plated in 24 well multiwell tissue culture dishes, in 1 ml of DME/F12 media supplemented with 5% fetal bovine serum. After 24 h, media is replaced with fresh media containing the concentration of inhibitor to be tested, or no inhibitor as a control. Cells are counted 1, 3, and 5 days subsequent to addition of inhibitor. For the day 5 counts, media with fresh inhibitor is used to replace spent media after day 3. […] For counting viable cells, cultures are trypsinized, stained with trypan blue, and cell number determined by counting under light microscopy with the use of a hemacytometer. Benzodiazepine derivatives were tested at their maximally soluble concentrations in 0.1% DMSO diluted with tissue culture medium, and serial dilutions were made thereof. Every concentration tested was performed in triplicate, in identical wells under identical assay conditions.

[6] = system: AFB-13 normal human fibroblasts; experiment: Growth of AFB-13 cells, control for cellular toxicity; type: cell-based
Experimental: as §4

Csk (C-Src kinase) = molecular target: T2, Csk (C-Src kinase) (Homo sapiens, UniProt P41240); experiment: Csk tyrosine kinase activity, poly E4Y and 32P-ATP; type: biochemical
T2 construct: glutathione-S-transferase (GST) (N); made in house; host or cells: E. coli
Source text: as §1, §2, §3

Src [7] = molecular target: T3, Src (Homo sapiens, UniProt P12931); experiment: Src tyrosine kinase activity, poly E4Y and 32P-ATP; type: biochemical; conditions: for Ki: Table 10, benzodiazepines as inhibitors of Src
T3 construct: made in house; host or cells: baculovirus-insect cell system
Experimental: The compounds within the library were screened at a concentration of 100 μM using the following assay procedure. A 10 μL aliquot of poly(Glu:Tyr, 4:1) to final concentration of 200 μg/mL, 20 μL of benzodiazepine to be tested, 10 μL of purified Src and 10 μL of [gamma-^32 P]-ATP-MgCl2 cocktail (final concentration of 0.2 mM ATP; specific activity of 600 dpm/pmol, and 6 mM MgCl2) were mixed and incubated in 0.5 mL test tubes at ambient temperature. After 30 min, a 35 μL aliquot was spotted onto a 1×1 inch 3 MM filter paper and dropped into a 5% TCA bath at 60° C. The filter papers were washed 3 times with 5% TCA and air dried. The filter papers were then placed into a vial, 3 mL scintillation cocktail added, and analyzed by liquid scintillation counting.
as §3

[8] = molecular target: FGFr (fibroblast growth factor receptor catalytic domain); experiment: FGFr tyrosine kinase activity, poly E4Y and 32P-ATP; type: biochemical, human
Source text: as §1, §2, §3

[9] = molecular target: T4, Abl (Bcr-Abl catalytic domain) (Homo sapiens, UniProt P00519); experiment: Abl tyrosine kinase activity, poly E4Y and 32P-ATP; type: biochemical
T4 construct: Abl (Bcr-Abl catalytic domain); glutathione-S-transferase (GST) (N); made in house; host or cells: E. coli
T4 sequence (P00519 242-493 limits assumed): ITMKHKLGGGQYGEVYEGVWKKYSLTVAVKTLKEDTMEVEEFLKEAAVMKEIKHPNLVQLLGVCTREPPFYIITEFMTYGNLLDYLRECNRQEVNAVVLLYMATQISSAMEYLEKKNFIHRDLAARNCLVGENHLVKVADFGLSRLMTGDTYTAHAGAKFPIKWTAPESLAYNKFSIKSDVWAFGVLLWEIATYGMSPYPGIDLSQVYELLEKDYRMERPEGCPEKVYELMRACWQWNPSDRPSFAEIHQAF
Source text: as §1, §2, §3

hexokinase (HXK) = experiment: Enzyme panel: hexokinase; type: biochemical
[10] = cited from earlier work
[11] = human, in vivo; cited from earlier work
Src [12] = conditions: Table 10, published peptides as inhibitors of Src; cited from earlier work
[13] = Homo sapiens, HT-29, 336 h, colonies ≥100 cells 14 days after plating
[14] = Homo sapiens, Fibroblast, 120 h, viable cell count 5 days after plating

T3 sequence (P12931 whole entry, species assumed): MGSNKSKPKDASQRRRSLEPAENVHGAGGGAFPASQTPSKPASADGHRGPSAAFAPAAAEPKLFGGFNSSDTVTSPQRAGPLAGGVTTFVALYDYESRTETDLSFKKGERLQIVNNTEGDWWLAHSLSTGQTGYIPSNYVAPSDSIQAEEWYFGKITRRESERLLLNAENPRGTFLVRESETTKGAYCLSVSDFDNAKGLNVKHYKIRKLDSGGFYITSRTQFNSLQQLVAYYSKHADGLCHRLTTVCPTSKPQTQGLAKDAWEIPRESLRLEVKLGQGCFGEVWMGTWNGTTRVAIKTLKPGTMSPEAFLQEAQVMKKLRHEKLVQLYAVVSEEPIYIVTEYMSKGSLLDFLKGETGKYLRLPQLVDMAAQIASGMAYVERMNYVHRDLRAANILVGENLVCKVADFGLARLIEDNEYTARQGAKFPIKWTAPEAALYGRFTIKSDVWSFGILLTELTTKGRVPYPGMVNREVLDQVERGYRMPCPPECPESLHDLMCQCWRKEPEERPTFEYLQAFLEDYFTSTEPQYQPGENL
T2 sequence (P41240 whole entry): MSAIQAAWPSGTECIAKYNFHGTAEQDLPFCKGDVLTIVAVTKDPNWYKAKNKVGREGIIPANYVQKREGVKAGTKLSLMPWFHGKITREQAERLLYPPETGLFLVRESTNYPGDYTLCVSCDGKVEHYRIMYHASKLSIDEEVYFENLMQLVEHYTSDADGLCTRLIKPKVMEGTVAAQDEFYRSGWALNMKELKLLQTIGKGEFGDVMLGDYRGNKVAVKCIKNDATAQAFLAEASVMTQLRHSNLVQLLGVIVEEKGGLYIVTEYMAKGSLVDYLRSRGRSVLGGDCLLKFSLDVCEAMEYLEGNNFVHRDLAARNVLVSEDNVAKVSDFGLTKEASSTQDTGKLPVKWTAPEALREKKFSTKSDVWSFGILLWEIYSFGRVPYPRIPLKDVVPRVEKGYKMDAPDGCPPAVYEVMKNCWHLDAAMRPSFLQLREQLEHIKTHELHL
T1 sequence (P06240 whole entry): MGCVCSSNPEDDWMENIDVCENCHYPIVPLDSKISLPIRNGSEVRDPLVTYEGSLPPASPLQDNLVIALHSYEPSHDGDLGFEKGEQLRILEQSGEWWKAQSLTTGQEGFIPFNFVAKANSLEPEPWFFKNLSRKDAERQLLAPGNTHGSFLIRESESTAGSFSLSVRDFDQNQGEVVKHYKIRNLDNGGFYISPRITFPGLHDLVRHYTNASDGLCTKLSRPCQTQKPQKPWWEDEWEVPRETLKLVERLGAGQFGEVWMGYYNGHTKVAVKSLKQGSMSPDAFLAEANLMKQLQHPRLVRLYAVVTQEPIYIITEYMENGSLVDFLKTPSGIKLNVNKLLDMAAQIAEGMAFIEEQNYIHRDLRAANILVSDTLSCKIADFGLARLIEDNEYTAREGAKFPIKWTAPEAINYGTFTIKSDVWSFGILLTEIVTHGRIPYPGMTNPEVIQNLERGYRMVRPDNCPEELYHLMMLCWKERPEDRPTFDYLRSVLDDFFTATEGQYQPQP

Compound: 4-[bis(2-chloroethyl)amino]-L-phenylalanine [Melphalan]
- patients showing a favorable response [1]: one third to one half

Compound: Cc1c2oc3c(C)ccc(C(=O)N[C@@H]4C(=O)N[C@H](C(C)C)C(=O)N5CCC[C@H]5C(=O)N(C)CC(=O)N(C)[C@@H](C(C)C)C(=O)O[C@@H]4C)c3nc-2c(C(=O)N[C@@H]2C(=O)N[C@H](C(C)C)C(=O)N3CCC[C@H]3C(=O)N(C)CC(=O)N(C)[C@@H](C(C)C)C(=O)O[C@@H]2C)c(N)c1=O [Actinomycin D] (I: T[dV]P[Sar][NMeV] / II: T[dV]P[Sar][NMeV]; ester I:1-I:C, II:1-II:C; linker I:N-II:N via Actinocin(9to1))
- dose excreted intact into the bile ([2]; in vivo): Half
- passage of the blood-brain barrier ([2]; in vivo): does not pass the blood-brain barrier

Compound: CS(=O)(=O)OCCCCOS(C)(=O)=O [Busulfan, 1,4-butanediol dimethanesulfonate]
- adults obtaining hematologic remission [3]: Approximately 90%

Compound: O=C(O)CCCc1ccc(N(CCCl)CCCl)cc1 [Chlorambucil, 4-[bis(2-chlorethyl)amino]benzenebutanoic acid]
- terminal half-life of the parent drug ([2]; single oral doses of 0.6-[…]): 1.5 h

Compound: N.N.[Cl][Pt][Cl] [Cisplatin]
- oral absorption ([2]; in vivo): not absorbed orally

Compound: O=C1[C@@H](Cc2ccc(O)cc2)N=C(c2ccc(O)cc2)c2cc(Cl)ccc2N1Cc1ccc(-c2ccccc2)cc1 [D-Tyr,BnzPh, 7-chloro-1,3-dihydro-1-(-4-biphenylmethyl)-3-(-4-hydroxyphenylmethyl)-5-(4-hydroxyphenyl)-(2H)1,4-benzodiazepin-2-one]
- activity at 3 µM [4, 13]: 94%
- activity at 16 µM ([4]; Homo sapiens, HT-29, 336 h, 16 μM, colonies ≥100 cells 14 days after plating): 90%
- activity at 32 µM ([4]; Homo sapiens, HT-29, 336 h, 32 μM, colonies ≥100 cells 14 days after plating): 100%
- IC50 (Lck (p56^lck)): 640 µM
- IC50 (protein kinase A (PKA)): 54 µM
- HT-29 Growth ([5]; 32 μM): cytotoxic
- activity at 3 µM ([5]; Homo sapiens, HT-29, 120 h): 94 ± 9%
- activity at 16 µM ([5]; Homo sapiens, HT-29, 120 h, 16 μM): 74 ± 5%
- activity at 3 µM [6, 14]: 89 ± 6%
- activity at 16 µM ([6]; Homo sapiens, Fibroblast, 120 h, 16 μM, viable cell count 5 days after plating): 100 ± 4%
- activity at 32 µM ([6]; Homo sapiens, Fibroblast, 120 h, 32 μM, viable cell count 5 days after plating): 100 ± 7%
- IC50 (Csk (C-Src kinase)): 404 µM
- IC50 (Src [7]): 97 µM
- Ki (Src [7]): 43 µM
- IC50 [8]: 335 µM

Compound: COc1cccc2c1C(=O)c1c(O)c3c(c(O)c1C2=O)C[C@@](O)(C(C)=O)C[C@@H]3O[C@H]1C[C@H](N)[C@H](O)[C@H](C)O1 [Daunorubicin, 5,12-Naphthacenedione, (8S-cis)-8-acetyl-10-[(3-amino-2,3,6-trideoxy-α-L-lyxo-hexanopyranosyl)oxy]-7,8,9,10-tetrahydro-6,8,11-trihydroxy-10-methoxy-, hydrochloride]
- oral absorption ([2]; in vivo): poor
- elimination half-life [2]: about 19 hr

Compound: COc1cccc2c1C(=O)c1c(O)c3c(c(O)c1C2=O)C[C@@](O)(C(=O)CO)C[C@@H]3O[C@H]1C[C@H](N)[C@H](O)[C@H](C)O1 [Doxorubicin, 5,12-Naphthacenedione, (8s-cis)-10-[(3-amino-2,3,6-trideoxy-α-L-lyxo-hexopyranosyl)oxy]-7,8,9,10-tetrahydro-6,8,11-trihydroxy-8-(hydroxyacetyl)-1-methoxy-hydrochloride]
- oral absorption ([2]; in vivo): absorbed poorly
- secreted into the bile ([2]; in vivo): Forty to 50
- elimination half-life [2]: about 30 hr

Compound: O=C1[C@H](Cc2ccc(O)cc2)N=C(c2ccc(O)cc2)c2cc(Cl)ccc2N1Cc1ccccc1 [L-Tyr,Bnz]
- inhibition of colony formation of HT-29 colon adenocarcinoma cells ([4]; 30 μM): complete inhibition
- activity at 3 µM [4, 13]: 52%
- activity at 15 µM ([4]; Homo sapiens, HT-29, 336 h, 15 μM, colonies ≥100 cells 14 days after plating): 11%
- activity at 30 µM ([4]; Homo sapiens, HT-29, 336 h, 30 μM, colonies ≥100 cells 14 days after plating): 0%
- IC50 (Lck (p56^lck)): 570 µM
- IC50 [9]: 931 µM
- IC50 (protein kinase A (PKA)): 124 µM
- IC50 (hexokinase (HXK)): 352 µM
- activity at 3 µM ([5]; Homo sapiens, HT-29, 120 h): 100 ± 3%
- activity at 15 µM ([5]; Homo sapiens, HT-29, 120 h, 15 μM): 84 ± 6%
- activity at 30 µM ([5]; Homo sapiens, HT-29, 120 h, 30 μM): 73 ± 9%
- activity at 3 µM [6, 14]: 100 ± 4%
- activity at 15 µM ([6]; Homo sapiens, Fibroblast, 120 h, 15 μM, viable cell count 5 days after plating): 92 ± 6%
- activity at 30 µM ([6]; Homo sapiens, Fibroblast, 120 h, 30 μM, viable cell count 5 days after plating): 92 ± 8%
- inhibition of growth of AFB-13 normal fibroblasts ([6]; same concentrations (up to 30 μM)): no inhibition
- IC50 (Csk (C-Src kinase)): 404 µM
- IC50 (Src [7]): 190 µM
- Ki (Src [7]): 74 µM
- IC50 [8]: 418 µM

Compound: O=NN(CCCl)C(=O)NC1CCCCC1 [Lomustine, 1-(2-chloro-ethyl)-3-cyclohexyl-1 nitrosourea]
- solubility in absolute alcohol ([10]; absolute alcohol): 70 mg per ml
- solubility in water ([10]; water): < 0.05 mg per ml
- radioactivity excreted as degradation products within 24 hours ([2]; oral radioactive drug, 30 mg/m^2 to 100 mg/m^2): about half

Compound: CO[C@@]12[C@H](COC(N)=O)C3=C(C(=O)C(C)=C(N)C3=O)N1C[C@@H]1N[C@@H]12 [Mitomycin]
- dose excreted unchanged in the urine [11]: Approximately 10%

Compound: DRVYVHPF
- Ki (Src [12]): 3100 µM

Compound: EEIYGEFE
- Ki (Src [12]): 70 µM

Compound: EFEYAFF
- Ki (Src [12]): 130 µM

Compound: KKSRGDYMTMQIG
- Ki (Src [12]): 200 µM

Compound: RDRVYVHPF
- Ki (Src [12]): 2600 µM

Compound: RRLIEDAEYAARG
- Ki (Src [12]): 10000 µM

Compound: YIYGSFK
- Ki (Src [12]): 1600 µM

Reference: US6100254A, “Inhibitors of protein tyrosine kinases” (Board of Regents, The University of Texas System, priority 1997, dated 2000)
